# Laboratory results reported in a melting point compilation (Tetko et al.; mined from patent text by program, amines drawn as free bases though some values may be those of a salt).
row,melting point,Compound
1,112 to 115 °C,Cc1cc(CNC(=O)C(=O)NCCc2ccccn2)c(C)o1
2,221 to 223 °C,Cc1cccc(NC(=O)C2=C(O)c3ccc4ccccc4c3S(=O)(=O)N2C)n1
3,130 °C,O=[N+]([O-])c1ccc(S(=O)(=O)CCCl)cc1
4,157 to 158 °C,Cn1nc(-c2ccc(Cl)cc2)nc1-c1cccnc1
5,92 °C,O=c1oc(OCc2ccccc2)c(Cl)c2ccccc12
6,165 to 167 °C,Nc1ccc(-c2ncc(Br)cn2)c([N+](=O)[O-])c1
7,291 to 293 °C,CN1CC(=O)N2[C@H](c3ccc4occc4c3)c3[nH]c4ccccc4c3C[C@@H]2C1=O
8,140 to 141 °C,O=Cc1cn(Cc2ccc3cc(OCc4ccccc4)ccc3c2)cc1-c1ccccc1
9,198 to 199 °C,N#Cc1cccc(-c2cc(-c3ccc(C#N)cc3O[N+](=O)[O-])on2)c1
10,227 to 230 °C,Clc1cccc(-c2nnc3c4ccc(Cl)cc4c(-c4ccccc4)nn23)c1
11,164 to 166 °C,CC(=O)SCC(Cc1ccc(F)cc1F)C(=O)Nc1cccc(C(=O)O)c1 (stereo unspecified)
12,226 to 228 °C,O=C(O)c1sc(Oc2ccc3c(c2)OCO3)c2c1CCc1cnoc1-2
13,90 °C,CCC(=O)NC(=O)C(CC)(OC(=O)CC)C(=O)NC(=O)CC
14,135 to 139 °C,O=C(Nc1ccc(-n2nc(C3CC3)cc2C2CC2)cc1)c1ccncc1F
15,158 to 160 °C,CC(C)(C)c1cc(-c2nn(CCC#N)c3ncccc23)cc(C(C)(C)C)c1O
16,117 to 120 °C,NNC(=O)c1ccc(OC(F)(F)C(F)(F)F)cc1
17,248 to 251 °C,CC1CC(=O)NN=C1c1ccc2c(ccc(=O)n2C)c1 (stereo unspecified)
18,130 to 132 °C,CCOC(=O)C1CNc2ccc([N+](=O)[O-])cc2O1 (stereo unspecified)
19,222 to 224 °C,CCOC(=O)c1cnc2nn(C)cc2c1O
20,192 °C,CCOc1ccc2c(c1)C(C)(c1cc(NC(=O)c3cccnc3)ccc1Cl)C(=O)N2S(=O)(=O)c1ccc(C(=O)NC(C)(C)C)cc1OC (stereo unspecified)
21,278 to 282 °C,Cc1cc2c(=O)[nH][nH]c(=O)c2n1CC(C)C
22,193 to 195 °C,COc1cc(-n2nc(C)[nH]c2=O)c(F)cc1Cl
23,45 to 47 °C,CC(C)(O)c1ccc(C#N)cc1
24,121 to 123 °C,Cc1c(Cl)nc2nc(SCc3ccccc3)nn2c1Cl
25,124 to 126 °C,Nc1nc2c(OCCO)cccc2o1

row,melting point,Compound
1,263 to 264 °C,CC(C)Sc1nc(-c2ccc(F)cc2)c(-c2ccncc2)[nH]1
2,132 to 134 °C,CC[C@@]1(O)CC(=O)c2c(OC)ccc(OC)c2C1
3,290 to 293 °C,CC(C)c1nc2c([nH]1)c(=S)[nH]c(=O)n2-c1cccc(Cl)c1
4,165 to 166 °C,CCn1ncc2nc(C(=O)NC)c(-c3ccccc3)nc21
5,208 to 210 °C,CCCNC(=O)N1CCC(O)(Cc2c3c(nn2CC)c(N)nc2ccccc23)CC1
6,196 to 198 °C,CCCNC(=O)Nc1ccc(SC)cc1C(=O)NCC1CCN(C(c2ccccc2)c2ccccc2)CC1
7,193 to 194 °C,NNc1nnc(C(=O)C(F)(F)F)nc1-c1ccccc1
8,76 to 77.5 °C,CCOC(=O)C=C(C)NC(=O)C(C)(C)CCl
9,135 to 137 °C,COc1ccc(OCCCCl)c(C2(SC)Sc3ccccc3N(C)C2=O)c1 (stereo unspecified)
10,152 to 153 °C,CCOc1ccc2nc(SC(C)(C(=O)O)c3ccccc3)sc2c1 (stereo unspecified)
11,236 to 238 °C,N=CN1C(C(=O)NN)C(Sc2ccccc2)=CC(=O)N1c1ccccc1 (stereo unspecified)
12,68 to 70 °C,O=C1OC(CCc2ccccc2)(c2ccccc2)CC(O)=C1CCc1ccccc1 (stereo unspecified)
13,93.8 to 95.1 °C,FC(F)(F)CN1CCC(CNOCc2ccccc2)CC1
14,154 to 158 °C,CC(C)(C)C(=O)Nc1ccc(C(F)(F)F)cc1
15,67 to 70 °C,CC(C)(C)c1cc(CNC2CCCCC2)c(O)c(C(C)(C)C)c1
16,245 to 247 °C,CN1CCN(c2cccc3c2C[C@H](NC(=O)c2ccc(-n4cccc4)cc2)CC3)CC1
17,104 to 106 °C,COCCOc1c(S(C)(=O)=O)ccc(C(=O)O)c1C
18,88.5 to 90 °C,CCOc1ccccc1O[C@@H]1CN(Cc2ccccc2)C[C@H]1O (relative stereo)
19,86 °C,CC(C)(C)OC(=O)N=C(NCCCCNC(=O)[C@H](Cc1ccccc1)NC(=O)CCCC(=O)O)NC(=O)OC(C)(C)C
20,201 to 203 °C,C#Cc1cc(Nc2ncnc3cnc(NCc4ccc(OC)cc4)cc23)ccc1Cl
21,120 °C,CC(C)(C)OC(=O)Nc1cc(Cl)c(Cl)c(Cl)c1
22,85 to 89 °C,N#CCCn1cccc1-c1ccc2cnc(Nc3ccc(N4CCOCC4)cc3)nn12
23,65 to 68 °C,CCCCCC(C(=O)O)c1ccc(Cl)cc1Cl (stereo unspecified)
24,117 to 119 °C,COC(=O)C(C(=O)OC)C(Cc1c([N+](=O)[O-])cccc1C(F)(F)F)c1ccc(OC)cc1 (stereo unspecified)
25,78 to 80 °C,CCOC(=O)C=C1C(OC)CC1c1cccc(C2(c3ccc(OC(F)F)cc3)N=C(N)N(C)C2=O)c1 (stereo unspecified)

row,melting point,Compound
1,> 330 °C,O=C1NC(=O)c2c1c(-c1cc([N+](=O)[O-])cc([N+](=O)[O-])c1)cc1[nH]c3ccc(O)cc3c21
2,58 to 59.5 °C,CCCc1[nH]c(C(=O)OCC)c(CC)c1C
3,143 to 145 °C,COc1cc(C(=O)N(CCCC(=O)O)c2cccc3ccccc23)cc(OC)c1OC
4,206 to 207 °C,N=C(NC(=O)c1cccc2ccccc12)N1CC(c2ccccc2)C(c2ccc(Cl)cc2)=N1 (stereo unspecified)
5,211 to 213 °C,CCOC(=O)c1cc(Br)cc2c(=O)cc(-c3cccc(OCc4ccc5ccccc5c4)c3)oc12
6,92 °C,COC(=O)CCCCc1csc(N=C2SC[C@@H]3Cc4ccccc4CN23)n1
7,60 to 63 °C,COC(=O)c1ncc(Cl)nc1Cl
8,150 to 151 °C,N#CCCNC(=O)c1cccc(-c2cccc(Oc3ccc4[nH]ccc4c3)n2)c1
9,148 °C,N#CC(=NOS(=O)(=O)c1ccc(O)cc1)c1ccccc1
10,275 to 277 °C,Cc1cc(C(F)(C(F)(F)F)C(F)(F)F)ccc1NC(=O)c1ccnc(Cl)c1C(=O)NC(C)C
11,201 to 203 °C,Cn1nnc(-c2ccc3c(c2)c(C2=CCN(CCN4CCNC4=O)CC2)cn3-c2ccc(F)cc2)n1
12,89.5 to 90.5 °C,CN(C)C(=O)N(C)C(=O)Nc1ccccc1
13,234 to 236 °C,CN(C)c1ccc(-c2ccccc2C(=O)O)nc1
14,144 to 145 °C,COc1cc2c(cc1OCc1ccccc1)CCN(Cc1cc(OC)c(OC)c(OC)c1)C2
15,111 to 113 °C,CCCCCc1c(/C=C/C(=O)Oc2ccc([N+](=O)[O-])cc2)sc2cc(OC)ccc12
16,46 to 48 °C,Cc1ccc(CC(CNC(=O)C(C)c2ccc(NS(C)(=O)=O)c(F)c2)COC(=O)C(C)(C)C)cc1C (stereo unspecified)
17,120 to 121 °C,CCOC(=O)C1(C(=O)OCC)CCNC(=O)C1CCO (stereo unspecified)
18,104 to 107 °C,COC(=O)c1ccc(CNc2ccc3c(c2)C(C)(C)CCC3(C)C)cc1
19,76.5 to 77 °C,C(#Cc1cnc2ccccc2c1)CCN1CCN(c2ccccn2)CC1
20,141 to 144 °C,O=S(=O)(c1ccc(I)cc1)N1CCOCC1
21,148 to 149 °C,CC1=CC(=C(C#N)C#N)C=C(C)N1CCOCCCl
22,279 to 280 °C,O=C(O)c1ccc(/C=C/c2ccc(O)c(C34CC5CC(CC(C5)C3)C4)c2)cc1
23,179 to 180 °C,Cc1oc(-c2ccccc2)nc1COc1ccc(Cn2cc(CCC(=O)O)c(-c3ccccc3)n2)cc1
24,27 °C,CCCCCc1ccc(-c2ccc(F)cc2)nc1
25,118 to 119 °C,O=C(CS(=O)(=O)c1cccs1)C12CC3CC(CC(C3)C1)C2

row,melting point,Compound
1,125 to 128 °C,Cc1ccc(S(=O)(=O)N2CCC[C@H]2C(=O)N[C@@H](Cc2ccc(NC(=O)C3CCNCC3)cc2)C(=O)O)cc1
2,196 to 200 °C,S=c1[nH]c(=S)c2[nH]cnc2[nH]1
3,136 to 138 °C,Cc1cc(C#N)ccc1-c1ccc(O)cc1
4,142 to 143 °C,CCOc1nn(-c2ccc(C(F)(F)F)cn2)cc1CCOc1ccc(CC(=O)O)cc1
5,101 to 104 °C,OCc1ccc2c(c1)COC2c1ccc(F)cc1 (stereo unspecified)
6,214 to 215 °C,O=[N+]([O-])c1cc(C(F)(F)F)cc([N+](=O)[O-])c1P(=O)(c1ccccc1)c1ccccc1
7,160 to 162 °C,CC(C)Oc1cc(-n2c(=O)[nH]c(C(F)(F)C(F)(F)F)c(F)c2=O)c(F)cc1Cl
8,143 to 144 °C,CS(=O)(=O)Nc1cc2c(cc1Oc1ccccc1)C(=O)CCO2
9,74 to 75 °C,CCC(COC)(OC)c1cccc(OCOC)c1 (stereo unspecified)
10,95 to 95.5 °C,CCOC(=O)[C@@H](Cc1ccc2ccc(C#N)cc2c1)c1ccc(O[C@H]2CCN(Cc3ccccc3)C2)cc1
11,106 to 109 °C,CN(Cc1ccccc1)C(=O)/C=C/c1cc(Cl)cnc1N
12,166 to 168 °C,CCOC(=O)C1=C(C)NC(C)=C(C(=O)OCC)C1c1cc(Cl)ccc1Cl
13,81 to 83 °C,COC(=O)c1c(OC)ccc(OC)c1N=CN(C)C
14,189 °C,N#Cc1ccc(NC(=O)N[C@@H]2C[C@@H]2c2c(F)cccc2Cl)nc1 (relative stereo)
15,148 to 150 °C,Cc1nc(CNC(=O)c2sc(-n3cnn(Cc4ccc(F)cc4)c3=O)cc2C)cs1
16,142 °C,CCOC(=O)N1CC[C@H](NC(=O)c2cc(N)c(Cl)cc2OC)[C@H](OC)C1 (relative stereo)
17,114 to 116 °C,CNC(=NCCSCc1cc(CN(C)C)ccn1)NC#N
18,105 to 107 °C,O=C1CNC(SCc2ccccn2)=N1
19,44.5 to 45.5 °C,C=CCCCc1cc(-c2ccc(F)cc2)nc(C)n1
20,111 to 112 °C,CCN(CC)C(=O)Cc1c(C)n(Cc2ccccc2)c2ccc(OCc3nc4ccccc4s3)cc12
21,98 to 100 °C,C#CCCN1CCC(O)(c2ccc(Cl)cc2)CC1
22,176 to 177 °C,O=C(Nc1ccccc1Oc1ccc(Cl)cc1Cl)C1CCN(C(=O)c2ccccc2)CC1
23,109 to 111 °C,CS(=O)(=O)c1cc(-c2ccccc2)ncn1

row,Compound,melting point
1,Cc1cc(C2=NOC(c3cc(Cl)cc(Cl)c3)(C(F)(F)F)C2)ccc1C(=O)NC(N)=O (stereo unspecified),201 to 205 °C
2,CCCOC1CCC2C3CCC4=CC(=O)CCC4C3CCC12CC (stereo unspecified),83 to 84 °C
3,CN(C(=O)c1ccccc1)C(=N[N+](=O)[O-])NCc1cnc(Cl)s1,170 to 172 °C
